We go through 7 compounds from patent US6200762A, “Photon reducing agents and compositions for fluorescence assays” (Aurora Biosciences Corporation, priority 1998, dated 2001).

The nature of series [1]: Effect of 50% methanol on coumarin fluorescence and phenol red absorbance (dye stacking). It counts as physicochemical. Here is the method: To further investigate the ability of a photon reducing agent to reduce fluorescence of a solution, fluorescence of a dye in the presence of a photon reducing agent was monitored in the presence and absence of methanol.
[…] A 10 μM solution of 6-chloro-7-hydroxy coumarin-3-carboxylate was prepared in 39 mM phosphate buffer pH 7.5 and in a 1:1 mixture of same phosphate buffer and methanol. 1% (vol/vol) of a 100 mM aqueous Phenol Red stock solution was added to the solutions.
The presence of methanol increased fluorescence compared to an all aqueous buffer.

The nature of series [2]: Absorption maxima of dyes. It counts as physicochemical. Conditions: for Absorption maximum: main value.
A short description of series [3]: Reduction of front face fluorescence of a coumarin solution by 1 mM phenol red. Conditions: 0.5 μM coumarin, phosphate buffer pH 7.5 / 50% methanol. The method, then:
To investigate the ability of a photon reducing agent to reduce fluorescence of a solution, emission of a fluorophore from a sample was monitored in the presence and absence of a photon reducing agent.
Fluorescence from a solution of a blue fluorescent dye, 6-chloro-7-hydroxy coumarin 3-carboxylate, was determined in the presence and absence of a 1 mM phenol red as the photon reducing agent. A solution of 0.5 μM 6-chloro-7-hydroxy coumarin-3-carboxylate in solvent containing 50% (vol/vol) aqueous 39 mM phosphate buffer pH 7.5 and 50% (vol/vol) methanol was prepared. After taking a front face fluorescence spectrum of this solution on a Spex Fluorolog 2, 1% (vol/vol) of a 100 mM aqueous Phenol Red stock solution was added and another spectrum taken. Front face fluorescence refers to exciting the sample at a right angle to the sample surface and collecting emitted light (for example, from the excited region or emission region) at 12.5 degrees from such angle of excitation.

Series [4] can be described thus: Reduction of coumarin fluorescence as a function of path length. Conditions: 10 μM coumarin + 1 mM phenol red, capillary. The method, then:
To further investigate the ability of photon reducing agents to reduce fluorescence emitted from a solution, fluorescence emitted from a solution containing a fluorophore in the presence of a photon reducing agent was monitored as a function sample thickness.
A photon reducing agent, phenol red, was tested with a fluorophore, coumarin, as a function of sample thickness (path length). The experiment was conducted using a microscope equipped with epifluorescence. The liquid samples were drawn into low fluorescence capillary tubes of fixed path length (Vitro Dynamics, Rockaway N.J.) as indicated in the graphs. The following samples were evaluated:
1) 10 μM coumarin (diamonds)
2) 10 μM coumarin+1 mM phenol red (squares)
3) 10 μM coumarin+5% (vol/vol) Schilling Red (triangles).
The samples were excited using a 405/20 filter via a 425 dichroic reflector through a 20× objective (Zeiss 20×Fluar). Emitted light was filtered through a 460/50 filter and detected by an intensified CCD camera (Stanford Photonics, Menlo Park, Calif.). The detector output was converted to a 512×512 pixel eight-bit digital image. The data reflect the average intensity within a 20×20 pixel area within the capillary. The background intensity of the field was subtracted from all values.

The conditions of series [5]: pH 7.15.
Series [6] is described as follows: Reduction of solution fluorescence using non-dye quenchers and particulates. As to conditions: 10 μM coumarin, pH 7.5.

The structures appear in SMILES notation. Counter-ions that a name gives are not always drawn.

Turning to `O=C(O)c1cc2cc(Cl)c(O)cc2oc1=O` [6-chloro-7-hydroxy coumarin-3-carboxylate], the “increase of fluorescence by 50% methanol buffer” value in series [1] (in the absence of a photon reducing agent) is on record as “about 30%”.

Compound `CC(=O)Nc1ccc(N=Nc2c(N)ccc3cc(S(=O)(=O)[O-])cc(O)c23)c(S(=O)(=O)[O-])c1.[Na+].[Na+]` [Acid Red 37] yielded an Absorption maximum in series [2] of 513 nm.

For the compound `O=S1(=O)OC(c2ccc(O)cc2)(c2ccc(O)cc2)c2ccccc21` [Phenol Red], the Absorption maximum in series [2] came out at 557 nm. Further, the “Absorption maximum (second value, in parentheses)” value in series [2] (value in parentheses) came to 423 nm. In addition, in series [1] (at the emission wavelength of the coumarin), the “decrease of absorbance by 50% methanol buffer” value is “about 20%”. In addition, the “reduction of front face fluorescence” value in series [3] worked out at 70 fold. Besides, the “attenuation of coumarin fluorescence” value in series [4] is “significantly attenuated”.

For `O=C(O)c1nn(-c2ccc(S(=O)(=O)O)cc2)c(O)c1N=Nc1ccc(S(=O)(=O)O)cc1` [Tartrazine], the Absorption maximum in series [2] turned out to be 425 nm.

In turn, `Cc1cc(-c2ccc(/N=N/c3c(S(=O)(=O)O)cc4cc(S(=O)(=O)O)cc(N)c4c3O)c(C)c2)ccc1/N=N/c1c(S(=O)(=O)O)cc2cc(S(=O)(=O)O)cc(N)c2c1O` [Trypan Blue] showed an Absorption maximum in series [2] of 607 nm.

In the case of `[Cl][Ni][Cl]` [nickel (II) salts, nickel (II) chloride], in series [5], the “concentration at which coumarin fluorescence can be reduced” value is on record as “low millimolar range”.

For the compound `NCCN(CCN)CCN` [tris(2-aminoethyl)amine], the “concentration typically required (collisional quenchers)” value in series [6] is “higher than 100 mM”.
